ChEMBL document CHEMBL1201862, “PubChem BioAssay data set” (2004)
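Method: 48-hour compound exposure of cells in 96-well plates, five concentrations, linear interpolation of endpoints. At the GI50, growth is halved.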 Calls of active or inactive are those of the source. Cut-off read from the data, not from the text of the source: active = GI50 up to about 1.1 µM and inactive = higher.

Experiments:
Assay in all cases: NCI tumour cell line growth inhibition, 48 h
[1] = test system: UACC-62
[2] = test system: SK-OV-3
[3] = test system: MDA-MB-435
[4] = test system: NCI-H226
[5] = test system: NCI/ADR-RES
[6] = test system: OVCAR-8
[7] = test system: M14
[8] = test system: RPMI-8226
[9] = test system: HT-29
[10] = test system: NCI-H460
[11] = test system: CCRF-CEM
[12] = test system: DU-145
[13] = test system: CAKI-1
[14] = test system: EKVX
[15] = test system: RXF 393
[16] = test system: MOLT-4
[17] = test system: OVCAR-3
[18] = test system: K562
[19] = test system: HOP-62
[20] = test system: SK-MEL-2
[21] = test system: Malme-3M
[22] = test system: SW-620
[23] = test system: OVCAR-4
[24] = test system: A498
[25] = test system: MCF7
[26] = test system: SF-295
[27] = test system: KM12
[28] = test system: UO-31
[29] = test system: U-251
[30] = test system: UACC-257
[31] = test system: COLO 205
[32] = test system: SN12C
[33] = test system: SK-MEL-5
[34] = test system: LOX IMVI
[35] = test system: OVCAR-5
[36] = test system: MDA-MB-231
[37] = test system: SK-MEL-28
[38] = test system: Hs-578T
[39] = test system: SF-268
[40] = test system: ACHN
[41] = test system: HCT-116
[42] = test system: NCI-H23
[43] = test system: HOP-92
[44] = test system: SNB-75
[45] = test system: SF-539
[46] = test system: HCT-15
[47] = test system: 786-0
[48] = test system: PC-3
[49] = test system: IGROV-1
[50] = test system: MDA-N
[51] = test system: SR
[52] = test system: A549
[53] = test system: TK-10
[54] = test system: HL-60
[55] = test system: SNB-19
[56] = test system: NCI-H522
[57] = test system: HCC 2998
[58] = test system: T47D
[59] = test system: BT-549

**Q.** For CC(C)(C)[Si](C)(C)OCC1OC(n2ccc(=O)[nH]c2=O)C(O[Si](C)(C)C(C)(C)C)/C1=C/C#N (stereo unspecified), which GI50 [1] is on record?
**A.** 1.07 µM (active)

**Q.** What about the GI50 [2] of the same compound?
**A.** 1.79 µM (inactive)

**Q.** What about the GI50 [3] of the same compound?
**A.** 3.94 µM (inactive)

**Q.** What about the GI50 [4] of the same compound?
**A.** 16.8 µM (inactive)

**Q.** And the GI50 [5]?
**A.** 4.01 µM (inactive)

**Q.** And the GI50 [6]?
**A.** 6.65 µM (inactive)

**Q.** And the GI50 [7]?
**A.** 10.9 µM (inactive)

**Q.** What about the GI50 [8] of the same compound?
**A.** 3.71 µM (inactive)

**Q.** What about the GI50 [9] of the same compound?
**A.** 3.88 µM (inactive)

**Q.** And the GI50 [10]?
**A.** 4.41 µM (inactive)

**Q.** And the GI50 [11]?
**A.** 4.23 µM (inactive)

**Q.** What about the GI50 [12] of the same compound?
**A.** 5.48 µM (inactive)

**Q.** What about the GI50 [13] of the same compound?
**A.** 8.43 µM (inactive)

**Q.** And the GI50 [14]?
**A.** 24.4 µM (inactive)

**Q.** What about the GI50 [15] of the same compound?
**A.** 2.91 µM (inactive)

**Q.** And the GI50 [16]?
**A.** 2.72 µM (inactive)

**Q.** What about the GI50 [17] of the same compound?
**A.** 7.29 µM (inactive)

**Q.** And the GI50 [18]?
**A.** 1.76 µM (inactive)

**Q.** And the GI50 [19]?
**A.** 12.5 µM (inactive)

**Q.** What about the GI50 [20] of the same compound?
**A.** 0.757 µM (active)

**Q.** What about the GI50 [21] of the same compound?
**A.** 12.8 µM (inactive)

**Q.** What about the GI50 [22] of the same compound?
**A.** 0.838 µM (active)

**Q.** What about the GI50 [23] of the same compound?
**A.** > 29.2 µM (inactive)

**Q.** And the GI50 [24]?
**A.** 10 µM (inactive)

**Q.** And the GI50 [25]?
**A.** 3.96 µM (inactive)

**Q.** And the GI50 [26]?
**A.** 0.67 µM (active)

**Q.** And the GI50 [27]?
**A.** 3.66 µM (inactive)

**Q.** And the GI50 [28]?
**A.** 4.89 µM (inactive)

**Q.** What about the GI50 [29] of the same compound?
**A.** 4.21 µM (inactive)

**Q.** And the GI50 [30]?
**A.** 7.19 µM (inactive)

**Q.** What about the GI50 [31] of the same compound?
**A.** 2.61 µM (inactive)

**Q.** What about the GI50 [32] of the same compound?
**A.** 3.78 µM (inactive)

**Q.** What about the GI50 [33] of the same compound?
**A.** 3.07 µM (inactive)

**Q.** And the GI50 [34]?
**A.** 5 µM (inactive)

**Q.** What about the GI50 [35] of the same compound?
**A.** 20.4 µM (inactive)

**Q.** And the GI50 [36]?
**A.** 8.41 µM (inactive)

**Q.** And the GI50 [37]?
**A.** 1.49 µM (inactive)

**Q.** And the GI50 [38]?
**A.** 5.73 µM (inactive)

**Q.** What about the GI50 [39] of the same compound?
**A.** 6.56 µM (inactive)

**Q.** What about the GI50 [40] of the same compound?
**A.** 5.7 µM (inactive)

**Q.** What about the GI50 [41] of the same compound?
**A.** 3.36 µM (inactive)

**Q.** What about the GI50 [42] of the same compound?
**A.** 5.89 µM (inactive)

**Q.** And the GI50 [43]?
**A.** 5.93 µM (inactive)

**Q.** And the GI50 [44]?
**A.** 46.6 µM (inactive)

**Q.** And the GI50 [45]?
**A.** 5.14 µM (inactive)

**Q.** And the GI50 [46]?
**A.** 4.9 µM

**Q.** What about the GI50 [47] of the same compound?
**A.** 4.37 µM (inactive)

**Q.** What about the GI50 [48] of the same compound?
**A.** 2.88 µM (inactive)

**Q.** And the GI50 [49]?
**A.** 40.8 µM (inactive)

**Q.** What about the GI50 [50] of the same compound?
**A.** 4.76 µM (inactive)

**Q.** And the GI50 [51]?
**A.** 3.5 µM (inactive)

**Q.** And the GI50 [52]?
**A.** 4.18 µM (inactive)

**Q.** And the GI50 [53]?
**A.** 12.7 µM (inactive)

**Q.** And the GI50 [54]?
**A.** 2.86 µM (inactive)

**Q.** What about the GI50 [55] of the same compound?
**A.** 31.8 µM (inactive)

**Q.** And the GI50 [56]?
**A.** 3.67 µM (inactive)

**Q.** And the GI50 [57]?
**A.** 5.48 µM (inactive)

**Q.** What about the GI50 [58] of the same compound?
**A.** 3.93 µM (inactive)

**Q.** For FC(F)(F)c1cnc(N/N=C(/c2ccccc2)c2ccccn2)c(Cl)c1, which GI50 [1] is on record?
**A.** 8.75 µM (inactive)

**Q.** What about the GI50 [2] of the same compound?
**A.** 4.76 µM (inactive)

**Q.** And the GI50 [3]?
**A.** 6.87 µM (inactive)

**Q.** What about the GI50 [4] of the same compound?
**A.** 13.2 µM (inactive)

**Q.** What about the GI50 [5] of the same compound?
**A.** 2.78 µM (inactive)

**Q.** And the GI50 [6]?
**A.** 2.39 µM (inactive)

**Q.** What about the GI50 [7] of the same compound?
**A.** 3.78 µM (inactive)

**Q.** And the GI50 [8]?
**A.** 2.97 µM (inactive)

**Q.** What about the GI50 [9] of the same compound?
**A.** 0.31 µM (active)

**Q.** What about the GI50 [10] of the same compound?
**A.** 3.27 µM (inactive)

**Q.** And the GI50 [11]?
**A.** 2.4 µM (inactive)

**Q.** What about the GI50 [12] of the same compound?
**A.** 6.64 µM (inactive)

**Q.** What about the GI50 [13] of the same compound?
**A.** 5.85 µM (inactive)

**Q.** What about the GI50 [14] of the same compound?
**A.** 3.43 µM (inactive)

**Q.** And the GI50 [15]?
**A.** 12.3 µM (inactive)

**Q.** And the GI50 [16]?
**A.** 2.67 µM (inactive)

**Q.** What about the GI50 [17] of the same compound?
**A.** 3.37 µM (inactive)

**Q.** And the GI50 [18]?
**A.** 4.03 µM (inactive)

**Q.** And the GI50 [19]?
**A.** 7.4 µM (inactive)

**Q.** What about the GI50 [59] of the same compound?
**A.** 11.1 µM (inactive)

**Q.** What about the GI50 [20] of the same compound?
**A.** 8.18 µM (inactive)

**Q.** What about the GI50 [22] of the same compound?
**A.** 3.02 µM (inactive)

**Q.** And the GI50 [23]?
**A.** 7.76 µM (inactive)

**Q.** What about the GI50 [25] of the same compound?
**A.** 2.44 µM (inactive)

**Q.** What about the GI50 [26] of the same compound?
**A.** 3.4 µM (inactive)

**Q.** And the GI50 [27]?
**A.** 5.14 µM (inactive)

**Q.** What about the GI50 [28] of the same compound?
**A.** 4.94 µM (inactive)

**Q.** What about the GI50 [29] of the same compound?
**A.** 4.9 µM (inactive)

**Q.** What about the GI50 [30] of the same compound?
**A.** 2.49 µM (inactive)

**Q.** And the GI50 [31]?
**A.** 2.51 µM (inactive)

**Q.** What about the GI50 [32] of the same compound?
**A.** 7.52 µM (inactive)

**Q.** And the GI50 [33]?
**A.** 4.29 µM (inactive)

**Q.** And the GI50 [35]?
**A.** 6.87 µM (inactive)

**Q.** What about the GI50 [36] of the same compound?
**A.** 5.57 µM (inactive)

**Q.** And the GI50 [37]?
**A.** 11.4 µM (inactive)

**Q.** And the GI50 [38]?
**A.** 9.14 µM (inactive)

**Q.** What about the GI50 [39] of the same compound?
**A.** 4.85 µM (inactive)

**Q.** What about the GI50 [40] of the same compound?
**A.** 3.21 µM (inactive)

**Q.** What about the GI50 [41] of the same compound?
**A.** 3.26 µM (inactive)

**Q.** What about the GI50 [42] of the same compound?
**A.** 7.26 µM (inactive)

**Q.** And the GI50 [43]?
**A.** 8.75 µM (inactive)

**Q.** What about the GI50 [44] of the same compound?
**A.** 6.25 µM (inactive)

**Q.** What about the GI50 [45] of the same compound?
**A.** 4.6 µM (inactive)

**Q.** And the GI50 [46]?
**A.** 1.98 µM

**Q.** And the GI50 [47]?
**A.** 4.12 µM (inactive)

**Q.** What about the GI50 [48] of the same compound?
**A.** 5.3 µM (inactive)

**Q.** What about the GI50 [49] of the same compound?
**A.** 2.83 µM (inactive)

**Q.** And the GI50 [50]?
**A.** 23.8 µM (inactive)

**Q.** What about the GI50 [51] of the same compound?
**A.** 2.76 µM (inactive)

**Q.** And the GI50 [52]?
**A.** 3.53 µM (inactive)

**Q.** What about the GI50 [55] of the same compound?
**A.** 9.33 µM (inactive)

**Q.** And the GI50 [56]?
**A.** 1.9 µM (inactive)

**Q.** What about the GI50 [57] of the same compound?
**A.** 5.92 µM (inactive)
